Tests used:
PKC subtypes □, □ and □ = conditions: >uM; cited from earlier work
PKC □ = conditions: read-out: Reported Potency IC50; cited from earlier work
[1] = tested on: relevant target and pathway; conditions: cited from earlier work
MEK ½ [2] = target: MEK ½ (Homo sapiens, UniProt P36507); conditions: second value, read-out: Reported Potency IC50; cited from earlier work
MKK4 = target: T1, MKK4 (Homo sapiens, UniProt P45985); conditions: read-out: Selectivity: MKK4 activity IC50; cited from earlier work
T1 sequence (P45985 1-399): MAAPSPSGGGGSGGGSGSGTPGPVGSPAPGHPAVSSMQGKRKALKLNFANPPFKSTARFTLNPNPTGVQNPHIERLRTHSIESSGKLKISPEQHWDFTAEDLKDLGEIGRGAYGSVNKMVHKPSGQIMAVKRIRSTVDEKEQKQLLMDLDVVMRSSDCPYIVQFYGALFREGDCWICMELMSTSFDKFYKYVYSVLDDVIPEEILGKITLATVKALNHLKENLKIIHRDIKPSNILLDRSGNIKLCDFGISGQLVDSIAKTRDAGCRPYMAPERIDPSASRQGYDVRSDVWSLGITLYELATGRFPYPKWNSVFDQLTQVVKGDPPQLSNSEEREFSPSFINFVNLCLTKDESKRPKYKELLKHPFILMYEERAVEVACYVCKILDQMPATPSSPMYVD

ERK1 = ERK1 (Homo sapiens, UniProt P27361); conditions: read-out: Selectivity: ERK1 activity IC50; cited from earlier work
MEK ½ [3] = target: MEK ½ (Homo sapiens, UniProt Q02750); conditions: first value, read-out: Reported Potency IC50; cited from earlier work
angiogenesis = conditions: in vivo; cited from earlier work
HUVEC = conditions: 48 hrs, 20 nM VEGF; standard deviation of 10%
Protocol: The cellular phenotypes, cell proliferation and/or cell death are measured using viable cell number determination methods. Measurement of cell proliferation and cytotoxicity using the luminescent assay ViaLight™-HS High Sensitivity Cytotoxicity and Cell Proliferation BioAssay Kit from Cambrex (East Rutherford, N.J.) is optimized for HUVECs. Linear detection of cell proliferation or cell survival is possible from as few as 100 and up to 10^6 cells. […] An alternative measurement of both ATP and ADP levels provides a ratio measurement indicating cells proliferation versus cell death.

[4] = Phase III, patients with wet AMD; cited from earlier work

Chain of MEK ½ (Homo sapiens, UniProt P36507) (P36507 whole entry): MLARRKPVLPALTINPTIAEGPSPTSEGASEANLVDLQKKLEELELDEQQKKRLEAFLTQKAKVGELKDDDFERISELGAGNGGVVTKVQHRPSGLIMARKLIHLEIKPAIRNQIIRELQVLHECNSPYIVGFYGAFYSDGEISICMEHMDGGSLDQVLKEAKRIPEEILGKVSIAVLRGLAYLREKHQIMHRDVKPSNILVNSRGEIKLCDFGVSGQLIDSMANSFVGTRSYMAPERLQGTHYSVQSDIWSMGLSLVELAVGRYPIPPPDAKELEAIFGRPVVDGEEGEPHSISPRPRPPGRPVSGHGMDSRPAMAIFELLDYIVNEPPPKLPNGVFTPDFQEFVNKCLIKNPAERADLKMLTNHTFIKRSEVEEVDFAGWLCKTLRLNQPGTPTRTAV
Chain of MEK ½ (Homo sapiens, UniProt Q02750) (Q02750 whole entry): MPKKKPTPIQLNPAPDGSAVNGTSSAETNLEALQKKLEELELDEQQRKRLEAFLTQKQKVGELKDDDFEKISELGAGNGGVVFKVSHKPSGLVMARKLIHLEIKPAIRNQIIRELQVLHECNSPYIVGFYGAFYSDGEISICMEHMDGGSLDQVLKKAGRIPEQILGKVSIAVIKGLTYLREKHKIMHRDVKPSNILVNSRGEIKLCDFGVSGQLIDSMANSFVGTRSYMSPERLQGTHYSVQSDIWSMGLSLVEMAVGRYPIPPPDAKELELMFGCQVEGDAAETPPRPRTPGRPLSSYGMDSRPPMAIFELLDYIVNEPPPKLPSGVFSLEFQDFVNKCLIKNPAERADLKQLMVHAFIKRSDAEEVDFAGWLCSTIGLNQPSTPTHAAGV
Chain of ERK1 (P27361 whole entry, species assumed): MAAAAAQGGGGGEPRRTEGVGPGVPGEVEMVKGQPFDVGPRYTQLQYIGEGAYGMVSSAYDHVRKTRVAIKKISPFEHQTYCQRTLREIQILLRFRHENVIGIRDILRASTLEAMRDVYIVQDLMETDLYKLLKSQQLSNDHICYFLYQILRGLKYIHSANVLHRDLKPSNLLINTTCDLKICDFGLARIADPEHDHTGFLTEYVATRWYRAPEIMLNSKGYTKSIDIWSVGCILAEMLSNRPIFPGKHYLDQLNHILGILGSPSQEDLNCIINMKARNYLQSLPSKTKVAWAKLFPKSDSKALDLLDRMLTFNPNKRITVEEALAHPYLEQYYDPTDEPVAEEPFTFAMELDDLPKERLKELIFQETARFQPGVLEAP

In the case of `Cn1c2ccccc2c2c3c(c4c5ccccc5n(CCC#N)c4c21)CNC3=O` [Go 6976], the “Selectivity: effect on the kinase activity of PKC subtypes □, □ and □” value (PKC subtypes □, □ and □) is given as “>uM no effect”, the IC50 (PKC □) is given as 0.0023 µM and the “activity against the relevant target and pathway in vivo” value (from here on “activity … in vivo”) [1] is given as “shown activity”.

For `C[S+]([O-])c1ccc(-c2nc(-c3ccncc3)c(-c3ccc(F)cc3)[nH]2)cc1` (stereo not drawn) [SB 203580], the “activity … in vivo” value [1] is given as “shown activity”.

In the case of `N#C/C(=C(/N)Sc1ccc(N)cc1)c1ccccc1C(F)(F)F` [SL327], the IC50 (MEK ½ [2]) is listed as 0.22 µM, the IC50 (MKK4) is listed as over 10 µM and the IC50 (ERK1) is listed as over 10 µM. For the same molecule, the IC50 (MEK ½ [3]) was 0.18 µM.

For `Cc1cc(C)c(/C=C2\C(=O)Nc3ccccc32)[nH]1` [SU5416], the “angiogenesis in the wound-healing model” value (angiogenesis) is listed as “block angiogenesis” and the “activity … in vivo” value [1] is listed as “shown activity”.

For VEGF, the “signal to noise for HUVEC proliferation” value (HUVEC) was 2 fold.

B1: Lucentis: humanized antibody fragment developed at Genentech, designed to bind and inhibit Vascular Endothelial Growth Factor A (antibody, chains of the INN, looked up, V domains shown)
VH: EVQLVESGGGLVQPGGSLRLSCAASGYDFTHYGMNWVRQAPGKGLEWVGWINTYTGEPTYAADFKRRFTFSLDTSKSTAYLQMNSLRAEDTAVYYCAKYPYYYGTSHWYFDVWGQGTLVTVSS
VL: DIQLTQSPSSLSASVGDRVTITCSASQDISNYLNWYQQKPGKAPKVLIYFTSSLHSGVPSRFSGSGSGTDFTLTISSLQPEDFATYYCQQYSTVPWTFGQGTKVEIK
modifications: Fab
In the case of B1, the vision [4] is given as “improved vision”.
